Test results taken from US12030929B2, “Fusobacterium nucleatum amyloid-like FadA for diagnosis and treatment of Fn-mediated pathogenesis” (The Trustees of Columbia University in the City of New York, priority 2021, dated 2024).

Columns and labels:
Fn 12230 [1] = test: Biofilm assay: Fn biofilm formation on detergent-resistant Fn pellets; type: cell-based, Fusobacterium nucleatum; conditions: 0, 10 or 50 μg/ml Congo Red; 48 or 72 hours; crystal violet OD550
Method: FIG. 4A-4F. Functional analysis of amyloid-like FadA in vitro. 4A. Facilitation of Fn biofilm formation by amyloid-like FadA. An aliquot of 10 μg each of the detergent-resistant pellets prepared from of Fn 12230 (wild type), US1 (ΔfadA) and lam, or PBS, was added to the 96-well plates and incubated at 37° C. for 5 hours. Fresh culture of Fn 12230 was diluted to OD600 of 0.2 and an aliquot of 200 μl was added to the wells, followed by incubation at 37° C. for 48 or 72 hours under anaerobic conditions. Following washes, the biofilms were incubated with 100 μl 0.1% crystal violet for 15 min. After washing, 100 μl 95% ethanol was added to each well and the optical density at OD550 was measured in a microplate reader. The results shown are the average of four experiments each performed in duplicate. A representative image following 72 hours of incubation is shown in the top panel. **p<0.01. ***p<0.001 (t-test). 4B. Inhibition of biofilm formation mediated by detergent-resistant Fn pellets by Congo Red. An aliquot of 10 μg detergent-resistant pellets prepared from Fn 12230 (pellet) was added in 96-well plates in the presence of 0, 10 or 50 μg/ml Congo Red (CR), followed by addition of Fn 12230 and incubated as described above. The results shown are the average of four experiments each performed in duplicate. […]

Fn 12230 [2] = test: pH tolerance assay, wild-type Fn; type: cell-based, Fusobacterium nucleatum; conditions: stationary phase; pH 4.0; 50 μg/ml Congo Red; 1 or 2 hours

`Nc1c(/N=N/c2ccc(-c3ccc(/N=N/c4cc(S(=O)(=O)O)c5ccccc5c4N)cc3)cc2)cc(S(=O)(=O)O)c2ccccc12` [Congo Red] was tested, and the “biofilm formation mediated by detergent-resistant Fn pellets” value (Fn 12230 [1]) was “inhibited biofilm formation in a dose-dependent manner” and the “viability of wild-type Fn in acidic environment” value (Fn 12230 [2]) was “drastically reduced viability of wild-type Fn to the similar levels as US1”.
